Source: PubChem BioAssay (NCI)
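In this assay, cells in 96-well plates receive the compound at five concentrations for 48 hours. Endpoints are linearly interpolated between the surrounding concentrations. TGI denotes the concentration required for complete inhibition of growth.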

Tests used:
Assay in all cases: NCI-60 cell line screen, 48 h
[1] = system: RPMI-8226 leukemia
[2] = system: MDA-MB-231 breast
[3] = system: SNB-19 CNS
[4] = system: SN12C renal
[5] = system: SK-MEL-28 melanoma
[6] = system: HS 578T breast
[7] = system: CCRF-CEM leukemia
[8] = system: OVCAR-3 ovarian

SMILES | TGI [1] | TGI [2] | TGI [3] | TGI [4] | TGI [5] | TGI [6] | TGI [7] | TGI [8]
COc1ccccc1NC(=O)CC(=O)N1N=C(N2c3ccccc3Sc3ccccc32)CC1c1ccccc1 (stereo not drawn) | > 100 µM | > 100 µM | > 100 µM | > 100 µM | > 100 µM | > 100 µM | > 100 µM | > 100 µM
Cc1ccc(C(=O)Nc2ccc(CP(=O)(O)O)cc2CP(=O)(O)O)cc1NC(=O)Nc1cc(C(=O)Nc2ccc(CP(=O)(O)O)cc2CP(=O)(O)O)ccc1C | > 100 µM | > 100 µM | > 100 µM | > 100 µM | > 100 µM | > 100 µM | > 100 µM | > 100 µM
C[C@@H]1C(=O)C[C@H]2C(C)(C)CCC[C@]2(C)[C@@]1(O)CCc1ccoc1 | > 100 µM | > 100 µM | > 100 µM | > 100 µM | > 100 µM | > 100 µM | > 100 µM | > 100 µM
Cc1sc2c(c1C)/C(=N\O)c1cccn1-2 | > 100 µM | > 100 µM | 63.2 µM | > 100 µM | > 100 µM | 46 µM | > 100 µM | > 100 µM
CCCCCCCCCCCCCCCCOP(=O)(O)OCC(N)C(=O)O (stereo not drawn) | 47.9 µM | 47.4 µM | 35.9 µM | 37.1 µM | > 100 µM | 40.8 µM | 65 µM | 41.1 µM
O=c1ccn(C2OC(CO)C(O)C2F)c(=O)n1Cc1ccccc1 (stereo not drawn) | > 100 µM | > 100 µM | > 100 µM | > 100 µM | > 100 µM | > 100 µM | > 100 µM | > 100 µM
COc1cc2c3c(n(C)c(=O)c2cc1OC)-c1cc2c(cc1/C3=C\CCCI)OCO2 | > 74.6 µM | > 100 µM | > 100 µM | > 100 µM | > 100 µM | > 75.5 µM | > 100 µM | > 100 µM
O=c1[nH]cc(Cl)c(=O)[nH]1 | > 100 µM | > 100 µM | > 100 µM | > 100 µM | > 100 µM | > 100 µM | > 100 µM | > 100 µM
Nc1nc(Cl)cc(NC2(CO)CCC2)n1 | > 100 µM | > 100 µM |  | > 100 µM | > 100 µM | > 100 µM | > 100 µM | > 100 µM
CCOC(=O)c1nc2ccc(C(F)(F)F)cc2nc1Nc1ccc(Cl)c(Cl)c1 | > 100 µM | > 100 µM | 95.7 µM | > 100 µM | > 100 µM | > 100 µM | > 100 µM | > 100 µM
C=C(C)COC1CCCCO1 (stereo not drawn) | > 100 µM | > 100 µM | > 100 µM | > 100 µM | > 100 µM | > 100 µM | > 100 µM | > 100 µM
Nc1[nH]nc2nc3ccccc3nc12 | > 100 µM | > 100 µM | > 100 µM | > 100 µM | > 100 µM | > 100 µM | > 100 µM | > 100 µM
O=C1C(Cl)=C(N(C(=O)c2ccccc2)C(=O)c2ccccc2)C(=O)c2ccccc21 | 8.87 µM | > 100 µM | > 100 µM | 61.3 µM | 40.2 µM | 98 µM | 18.6 µM | 22.9 µM
C=C1CC(Cn2ccc(=O)[nH]c2=O)(c2ccc(Cl)cc2)OC1=O (stereo not drawn) | 3.94 µM | 31.4 µM | > 71.1 µM | 28.1 µM | 13.7 µM | 38.7 µM | 3.46 µM | 21.8 µM
O=C(/C=C(\S/C=C(/c1ccccc1)N1CCn2c(C(=O)c3ccccc3)c(C(=O)c3ccccc3)c(C(=O)c3ccccc3)c21)C(=O)c1ccccc1)c1ccccc1 | > 10 µM | > 10 µM | > 10 µM | > 10 µM | > 10 µM | > 10 µM | > 10 µM | > 10 µM
Cc1cc(=O)n2nc(CCl)sc2n1 | 50.6 µM | 37.5 µM | 39 µM | 35 µM | 28.6 µM | 55.9 µM | 40.8 µM | 28.4 µM
CCCCCCCCCCCC[C@@H](O)[C@H]1CCC([C@H](O)CCCCC(=O)CCCCCCCC2=C[C@H](C)OC2=O)O1 (stereo partly drawn) | > 50 µM | > 50 µM | > 50 µM | > 50 µM | > 50 µM | > 32.8 µM | > 50 µM | > 50 µM
Cc1c(N=Nc2ccccc2)c(C)n(C2OC(CO)C(O)C(O)C2O)c(=S)c1C#N (stereo not drawn) | > 100 µM | > 100 µM | 96.2 µM | > 100 µM | > 100 µM | > 100 µM | > 100 µM | 62.9 µM
